# Laboratory results reported in US7151191B2, “Compounds and compositions for delivering active agents” (Emisphere Technologies, Inc., priority 2000, dated 2006).
row,Structure (SMILES),melting point
1,"O=C(O)CCCCCCCOc1ccc(Cl)cc1NC(=O)c1ccccc1O [Compound 1, 8-[(N-Salicyloyl-2-amino-4-chloro)phenoxyl]octanoic acid]",152 to 153 °C
2,O=C(O)CCCCOc1ccc(Cl)cc1NC(=O)c1ccccc1O [Compound 2],166 to 169 °C
3,O=C(O)CCCOc1ccc(Cl)cc1NC(=O)c1ccccc1O [Compound 3],231 to 234 °C
4,O=C(O)CCCCCCCOc1ccccc1NC(=O)c1ccccc1O [Compound 4],122 to 124 °C
5,O=C(O)CCCCOc1ccccc1NC(=O)c1ccccc1O [Compound 5],147 to 149 °C
6,O=C(O)COc1ccc(CCCNC(=O)c2ccccc2O)cc1 [Compound 10],124 to 126.5 °C

# Continued, values first:
row,melting point,Structure (SMILES)
1,135 to 137 °C,COc1cccc(C(=O)Nc2ccc(OCCC(=O)O)cc2)c1OC [Compound 7]
2,165 to 167 °C,"O=C(O)CCOc1ccc(NC(=O)c2ccccc2O)cc1 [Compound 8, 3-(4-salicyloylamino)phenoxy propionic acid]"
3,154 to 158 °C,COc1ccccc1C(=O)Nc1ccc(OCCC(=O)O)cc1 [Compound 9]
